The test system of this test is mouse L1210 leukemia cells. In words: Formation of L1210 leukemia cell colonies in soft agar (cytostatic activity). To be noted: colonies > 60 μm, % of untreated control; for IC50: Mus musculus. In kind it is cell-based. How it is done:
The cytostatic activity of the compounds according to the invention have been tested using mouse L1210 leukemia cells. Use was made for this by the formation of L1210 leukemia cell colonies in agar plates. This method is used to detect the effect of the test substances on the growth behavior of the cells over 1 hour or over several generations. In this connection, with a cell cycle time of 10-12 hours, about 14 consecutive generations are observed in a 7-day duration of the test. In this test, the substances having cytostatic activity according to the invention bring about a reduction, compared with an untreated control sample, in the number of colonies which is to be observed.
Procedure for Determining the Formation of L1210 Leukemia Cell Colonies in Soft Agar
500 leukemia cells per plate were incubated with various concentrations of the test substance at 37° C. for 1 hour. These cells were then washed twice with McCoy 5A medium, 0.3% agar was added, and finally the mixture was poured into Petri dishes. Controls were incubated only with fresh medium. In place of the incubation for one hour, in some cases various concentrations and test substances were mixed with the upper agar layer in order in this way to achieve continuous exposure of the cells throughout the incubation time. After the agar had solidified, the plates were incubated in an incubator at 37° C. for 7 days (5% by volume CO2, 95% relative atmospheric humidity). Thereafter the number of colonies with a diameter of more than 60 μm which had formed was counted. The results have been stated as the number of colonies in treated agar plates as a percentage of the untreated control. The dose-effect graph obtained in this way was used to determine the IC50 as a measure of the activity of the substance. The results for the compounds described here are compiled in Table 1 which follows, comparing with adriamycin.

Where [1] appears, read: L1210, 168 h, read-out: Continuous incubation IC50, continuous exposure, test substance mixed with upper agar layer, 7 days, 37° C.
Where [2] appears, read: L1210, read-out: 1 h incubation IC50, 1 hour incubation with test substance at 37° C., then washed, 7 days in agar.
The mark [3] stands for this setting: L1210, 168 h, continuous exposure, test substance mixed with upper agar layer, 7 days, 37° C., read-out: Continuous incubation IC50.
Where [4] appears, read: L1210, 1 hour incubation with test substance at 37° C., then washed, 7 days in agar, read-out: 1 h incubation IC50.

Converted amounts (≈) assume the structure as drawn. Structures can show the parent of a compound that is named as a salt. Where two headings read alike, the source gives them in different places.

Consider `CC[C@@]1(O)C[C@H](O[C@H]2C[C@H](NC)[C@H](O)[C@H](C)O2)c2c(O)c3c(c(O)c2[C@H]1O)C(=O)c1cccc(O)c1C3=O` [compound 1, 7-O-(3'-N-Methyl-α-L-daunosaminyl)-β-rhodomycinone], for which the IC50 (commonly the point on the concentration scale where inhibition reaches its midpoint) is, setting by setting: under setting [1], 0.02 µg/mL (≈ 0.0378 µM); under setting [2], 0.038 µg/mL (≈ 0.0718 µM).

As for `CC[C@@]1(O)C[C@H](O[C@H]2C[C@H](NC)[C@H](O)[C@H](C)O2)c2c(O)c3c(c(O)c2[C@H]1O)C(=O)c1cccc(O)c1C3=O` [compound 2, 7-O-(3'-N-Methyl-α-L-daunosaminyl)-β-rhodomycinone hydrochloride], the “1 h incubation IC50” value (1 hour incubation with test substance at 37° C., then washed, 7 days in agar, hydrochloride) came out at 0.026 µg/mL.

With `CC[C@@]1(O)C[C@H](O[C@H]2C[C@H](NC)[C@H](O)[C@H](C)O2)c2c(O)c3c(c(O)c2[C@H]1O)C(=O)c1c(O)ccc(O)c1C3=O` [compound 3, 7-O-(3'-N-Methyl-α-L-daunosaminyl)-β-isorhodomycinone], the half-inhibitory concentration (IC50) under setting [3] was 0.11 µg/mL (≈ 0.202 µM) and the IC50 under setting [4] was found to be 0.13 µg/mL (≈ 0.238 µM).

Consider `CC[C@@]1(O)C[C@H](O[C@H]2C[C@H](NC)[C@H](O)[C@H](C)O2)c2c(O)c3c(c(O)c2[C@H]1C(=O)OC)C(=O)c1c(O)ccc(O)c1C3=O` [compound 5, 7-O-(3'-N-Methyl-α-L-daunosaminyl)-ε-isorhodomycinone], for which the IC50 is 0.28 µg/mL (≈ 0.477 µM) under setting [3] and over 1 µg/mL under setting [4].

Take `CC[C@@]1(O)C[C@H](O[C@H]2C[C@H](N(C)C=O)[C@H](O)[C@H](C)O2)c2c(O)c3c(c(O)c2[C@H]1O)C(=O)c1cccc(O)c1C3=O` [compound 6, 7-O-(3'-N-Formyl-3'-N-methyl-α-L-daunosaminyl)-β-rhodomycinone]: the IC50 by setting is: under setting [1], 0.044 µg/mL (≈ 0.0789 µM); under setting [2], 0.15 µg/mL (≈ 0.269 µM).

Regarding `CC[C@@]1(O)C[C@H](O[C@H]2C[C@H](N(C)CC#N)[C@H](O)[C@H](C)O2)c2c(O)c3c(c(O)c2[C@H]1O)C(=O)c1cccc(O)c1C3=O` [compound 7, 7-O-(3'-N-Cyanomethyl-3'-N-methyl-α-L-daunosaminyl)-β-rhodomycinone], the IC50 is, setting by setting: under setting [1], 0.013 µg/mL (≈ 0.0229 µM); under setting [2], 0.021 µg/mL (≈ 0.0369 µM).

Turning to `CC[C@@]1(O)C[C@H](O[C@H]2C[C@H](N(C)CC#N)[C@H](O)[C@H](C)O2)c2c(O)c3c(c(O)c2[C@H]1O)C(=O)c1c(O)ccc(O)c1C3=O` [compound 8, 7-O-(3'-N-Cyanomethyl-3'-N-methyl-α-L-daunosaminyl)-β-isorhodomycinone], the 50% inhibitory concentration (IC50) is, setting by setting: under setting [1], 0.042 µg/mL (≈ 0.0718 µM); under setting [2], 0.2 µg/mL (≈ 0.342 µM).

In the case of `CC[C@@]1(O)C[C@H](O[C@H]2C[C@H](N(C)Cc3ccccc3)[C@H](O)[C@H](C)O2)c2c(O)c3c(c(O)c2[C@H]1O)C(=O)c1cccc(O)c1C3=O` [compound 9, 7-O-(3'-N-Benzyl-3'-N-methyl-α-L-daunosaminyl)-β-rhodomycinone], the IC50 under setting [3] was 0.028 µg/mL (≈ 0.0452 µM) and the IC50 under setting [4] turned out to be 0.32 µg/mL (≈ 0.516 µM).

Turning to `CCN(C)[C@H]1C[C@H](O[C@H]2C[C@](O)(CC)[C@H](O)c3c(O)c4c(c(O)c32)C(=O)c2c(O)cccc2C4=O)O[C@@H](C)[C@H]1O` [compound 11], the IC50 under setting [3] came out at 0.007 µg/mL (≈ 0.0126 µM) and the IC50 under setting [4] turned out to be 0.08 µg/mL (≈ 0.143 µM).

On to `CCCN(C)[C@H]1C[C@H](O[C@H]2C[C@](O)(CC)[C@H](O)c3c(O)c4c(c(O)c32)C(=O)c2c(O)cccc2C4=O)O[C@@H](C)[C@H]1O` [compound 12, 7-O-(3'-N-Methyl-3'-N-propyl-α-L-daunosaminyl)-β-rhodomycinone], for which the IC50 amounted to 0.026 µg/mL (≈ 0.0455 µM) under setting [3] and 0.1 µg/mL (≈ 0.175 µM) under setting [4].

Regarding `CCCCN(C)[C@H]1C[C@H](O[C@H]2C[C@](O)(CC)[C@H](O)c3c(O)c4c(c(O)c32)C(=O)c2c(O)cccc2C4=O)O[C@@H](C)[C@H]1O` [compound 13, 7-O-(3'-N-Butyl-3'-N-methyl-α-L-daunosaminyl)-β-rhodomycinone], the IC50 under setting [3] came to 0.018 µg/mL (≈ 0.0307 µM) and the IC50 under setting [4] came to 0.125 µg/mL (≈ 0.213 µM).

With `CC[C@@]1(O)C[C@H](O[C@H]2C[C@H](N(C)C(C)=O)[C@H](O)[C@H](C)O2)c2c(O)c3c(c(O)c2[C@H]1C(=O)OC)C(=O)c1c(O)ccc(O)c1C3=O` [compound 14, 7-O-(3'-N-Acetyl-3'-N-methyl-α-L-daunosaminyl)-ε-isorhodomycinone], the IC50 is 0.5 µg/mL (≈ 0.794 µM) under setting [3] and over 1 µg/mL under setting [4].

For the molecule `CC[C@@]1(O)C[C@H](O[C@H]2C[C@H](NC)[C@H](O)[C@H](C)O2)c2c(O)c3c(c(O)c2[C@H]1O[C@H]1C[C@H](NC)[C@H](O)[C@H](C)O1)C(=O)c1cccc(O)c1C3=O` [compound 15, 7,10-O-bis-(3'-N-Methyl-α-L-daunosaminyl)-β-rhodomycinone], the IC50 reads like this: under setting [3], over 1 µg/mL; under setting [4], over 1 µg/mL.

Take `CCCCCN(C)[C@H]1C[C@H](O[C@H]2C[C@](O)(CC)[C@H](O)c3c(O)c4c(c(O)c32)C(=O)c2c(O)cccc2C4=O)O[C@@H](C)[C@H]1O` [compound 18, 7-O-(3'-N-Methyl-3'-N-pentyl-α-L-daunosaminyl)-β-rhodomycinone]: the IC50 runs as follows: under setting [3], 0.075 µg/mL (≈ 0.125 µM); under setting [4], 0.48 µg/mL (≈ 0.8 µM).

For `CCCCCCN(C)[C@H]1C[C@H](O[C@H]2C[C@](O)(CC)[C@H](O)c3c(O)c4c(c(O)c32)C(=O)c2c(O)cccc2C4=O)O[C@@H](C)[C@H]1O` [compound 19, 7-O-(3'-N-Hexyl-3'-N-methyl-α-L-daunosaminyl)-β-rhodomycinone], the IC50 by setting is: under setting [3], 0.13 µg/mL (≈ 0.212 µM); under setting [4], 1.2 µg/mL (≈ 1.96 µM).

Consider `CCCCCCCN(C)[C@H]1C[C@H](O[C@H]2C[C@](O)(CC)[C@H](O)c3c(O)c4c(c(O)c32)C(=O)c2c(O)cccc2C4=O)O[C@@H](C)[C@H]1O` [compound 20, 7-O-(3'-N-Heptyl-3'-N-methyl-α-L-daunosaminyl)-β-rhodomycinone], for which the concentration for half-maximal inhibition (IC50) under setting [3] amounted to 0.38 µg/mL (≈ 0.605 µM) and the IC50 under setting [4] came to 1.9 µg/mL (≈ 3.03 µM).

Consider `CCCCCCCCN(C)[C@H]1C[C@H](O[C@H]2C[C@](O)(CC)[C@H](O)c3c(O)c4c(c(O)c32)C(=O)c2c(O)cccc2C4=O)O[C@@H](C)[C@H]1O` [compound 21, 7-O-(3'-N-Octyl-3'-N-methyl-α-L-daunosaminyl)-β-rhodomycinone], for which the IC50 by setting is: under setting [3], 0.46 µg/mL (≈ 0.717 µM); under setting [4], 2.8 µg/mL (≈ 4.36 µM).

For `CC[C@@]1(O)C[C@H](O[C@H]2C[C@H](N(C)Cc3ccc(Cl)cc3)[C@H](O)[C@H](C)O2)c2c(O)c3c(c(O)c2[C@H]1O)C(=O)c1cccc(O)c1C3=O` [compound 22, 7-O-(3'-N-(4-Chlorobenzyl)-3'-N-methyl-α-L-daunosaminyl)-β-rhodomycinone], the IC50 by setting is: under setting [3], 0.026 µg/mL (≈ 0.0397 µM); under setting [4], 0.95 µg/mL (≈ 1.45 µM).

On to `CC[C@@]1(O)C[C@H](O[C@H]2C[C@H](N(C)Cc3ccc(Br)cc3)[C@H](O)[C@H](C)O2)c2c(O)c3c(c(O)c2[C@H]1O)C(=O)c1cccc(O)c1C3=O` [compound 23, 7-O-(3'-N-(4-Bromobenzyl)-3'-N-methyl-α-L-daunosaminyl)-β-rhodomycinone], for which the IC50 under setting [3] is 0.08 µg/mL (≈ 0.115 µM) and the IC50 under setting [4] was over 1 µg/mL.

With `CC[C@@]1(O)C[C@H](O[C@H]2C[C@H](N(C)Cc3ccc([N+](=O)[O-])cc3)[C@H](O)[C@H](C)O2)c2c(O)c3c(c(O)c2[C@H]1O)C(=O)c1cccc(O)c1C3=O` [compound 24, 7-O-(3'-N-(4-Nitrobenzyl)-3'-N-methyl-α-L-daunosaminyl)-β-rhodomycinone], the IC50 runs as follows: under setting [1], 0.16 µg/mL (≈ 0.241 µM); under setting [2], 2.5 µg/mL (≈ 3.76 µM).

As for `CC[C@@]1(O)C[C@H](O[C@H]2C[C@H](N(C)Cc3ccc(C#N)cc3)[C@H](O)[C@H](C)O2)c2c(O)c3c(c(O)c2[C@H]1O)C(=O)c1cccc(O)c1C3=O` [compound 25, 7-O-(3'-N-(4-Cyanobenzyl)-3'-N-methyl-α-L-daunosaminyl)-β-rhodomycinone], the IC50 under setting [1] amounted to 0.11 µg/mL (≈ 0.171 µM) and the half-maximal inhibitory concentration (IC50) under setting [2] is over 1 µg/mL.

With `CCCCCN(C)[C@H]1C[C@H](O[C@H]2C[C@](O)(CC)[C@H](O)c3c(O)c4c(c(O)c32)C(=O)c2c(O)ccc(O)c2C4=O)O[C@@H](C)[C@H]1O` [compound 27, 7-O-(3'-N-Methyl-3'-N-pentyl-α-L-daunosaminyl)-β-isorhodomycinone], the IC50 under setting [3] is 0.06 µg/mL (≈ 0.0975 µM) and the IC50 under setting [4] is over 1 µg/mL.

Turning to `CC[C@@]1(O)C[C@H](O[C@H]2C[C@H](N(C)Cc3ccccc3)[C@H](O)[C@H](C)O2)c2c(O)c3c(c(O)c2[C@H]1O[C@H]1C[C@H](N(C)Cc2ccccc2)[C@H](O)[C@H](C)O1)C(=O)c1cccc(O)c1C3=O` [compound 28, 7,10-O-bis-(3'-N-Benzyl-3'-N-methyl-α-L-daunosaminyl)-β-rhodomycinone], the IC50 under setting [3] was 0.0065 µg/mL (≈ 0.00762 µM) and the IC50 under setting [4] is 0.12 µg/mL (≈ 0.141 µM).

Consider `CCCCCN(C)[C@H]1C[C@H](O[C@H]2C[C@](O)(CC)[C@H](O[C@H]3C[C@H](N(C)CCCCC)[C@H](O)[C@H](C)O3)c3c(O)c4c(c(O)c32)C(=O)c2c(O)cccc2C4=O)O[C@@H](C)[C@H]1O` [compound 29, 7,10-O-bis-(3'-N-Methyl-3'-N-pentyl-α-L-daunosaminyl)-β-rhodomycinone], for which the IC50 is 0.1 µg/mL (≈ 0.123 µM) under setting [3] and 0.6 µg/mL (≈ 0.738 µM) under setting [4].

These data come from patent US4948880A, “Anthracycline derivatives having cytostatic activity” (Behringwerke Aktiengesellschaft, priority 1986, dated 1990).
